Test results from US4598077A, “Amidine derivatives and cardiotonic compositions” (Torii & Co. Ltd., priority 1983, dated 1986).
Counter-ions that a name gives are not always drawn. Like-named read-outs stand apart in the source and are kept apart here.

Tests used:
Toxicity (LD50) = settings: in vivo, iv; mouse; I.V.
[1] = test system: papillary muscle preparation; assay: Isolated, blood-perfused papillary muscle preparation, developed tension (Table 1); set-up: species or system Mongrel dogs; settings: Canis lupus familiaris, close-arterial injection, read-out: Papillary muscle preparation, % increase in developed tension; for activation at 0.03 mg: dose 30 μg; for activation at 0.1 mg: dose 100 μg; for activation at 0.3 mg: dose 300 μg
Method: Mongrel dogs of either sex weighting 7.5-10 kg were anesthetized with sodium pentobarbital (30 mg/kg, i.v.). Each animal was given an intravenous dose of sodium heparin (500 units/kg), thereafter, the heart was removed and placed in cold Tyrode solution. The isolated and cross-circulated right atrium and papillary muscle preparations were arranged for perfusion from a donor dog as follows. The donor dog was also anesthetized with sodium pentobarbital (30 mg/kg, i.v.); heparin (500 units/kg) was given intravenously immediately before the perfusion began. (a) The isolated, blood-perfused papillary muscle preparation. The anterior septal artery was dissected and cannulated with polyethylene tubing. The tendinous end of the papillary muscle was connected to a strain-gauge transducer by a fine silk thread and the muscles were under about 2 g of resting tension. The papillary muscle preparation was electrically driven at a constant frequency of 120/min with rectangular pulses of 1-3 V and 5 msec duration. The preparation of the blood-perfused papillary muscle has been described in detail by Endoh and Hashimoto Am. J. Physiol, 218, 1459-1463 (1970). Each preparation was perfused with the arterial blood from the carotid artery of the donor dog at a constant perfusion pressure of 100 mmHg by means of a peristaltic pump. The venous effluent from the preparations was collected in a reservoir and returned to the donor dog through the jugular vein. Test compounds used in these experiments were dissolved in vehicle solution and were injected closearterially to the preparations. The effects of each compound on the developed tension and sinuo rate were evaluated as a percentage change in values determined before and after administration of the compound. In Table 1 are shown such changes in terms of the percentage increase after administration.

right atrium preparation = assay: Isolated, blood-perfused right atrium preparation, sinus rate (Table 1); set-up: species or system Mongrel dogs; settings: Canis lupus familiaris, close-arterial injection, read-out: Right atrium preparation; for activation at 0.03 mg: dose 30 μg; for activation at 0.03 mg / activation at 0.1 mg / activation at 0.3 mg: % increase in sinus rate
Method: Mongrel dogs of either sex weighting 7.5-10 kg were anesthetized with sodium pentobarbital (30 mg/kg, i.v.). Each animal was given an intravenous dose of sodium heparin (500 units/kg), thereafter, the heart was removed and placed in cold Tyrode solution. The isolated and cross-circulated right atrium and papillary muscle preparations were arranged for perfusion from a donor dog as follows. The donor dog was also anesthetized with sodium pentobarbital (30 mg/kg, i.v.); heparin (500 units/kg) was given intravenously immediately before the perfusion began. (b) The isolated, blood-perfused right atrium preparation. The sinus node artery was cannulated at its origin in the right coronary artery. A right atrial electrogram was obtained from bipolar electrodes which were placed in close proximity to the sinoatrial node. The sinus rate was recorded by a cardiotachometer triggered by the right atrial electrogram. The details of the bloodperfused right atrium preparation have been described by Chiba et al. (Tohoku J. exp. Med., 107, 101-102 (1972) and Kubota and Hashimoto (Naunyn-Schmiedeberg's Arch. Pharmacol., 278, 135-150 (1973)). Each preparation was perfused with the arterial blood from the carotid artery of the donor dog at a constant perfusion pressure of 100 mmHg by means of a peristaltic pump. The venous effluent from the preparations was collected in a reservoir and returned to the donor dog through the jugular vein. Test compounds used in these experiments were dissolved in vehicle solution and were injected closearterially to the preparations. The effects of each compound on the developed tension and sinuo rate were evaluated as a percentage change in values determined before and after administration of the compound. In Table 1 are shown such changes in terms of the percentage increase after administration.

[2] = test system: anesthetized open-chest dogs; assay: Cardiovascular effect in anesthetized open-chest dogs (Table 2); assay type: in vivo, Mongrel dogs; settings: Canis lupus familiaris, iv, femoral vein
Method: Mongrel dogs of either sex weighing 9-15 kg were anesthetized with sodium pentobarbital (30 mg/kg, i.v.). The heart was exposed by thoractomy by the left fifth intercostal incision under artificial respiration. Aortic flow was measured by the probe of electromagnetic flowmeter placed around the ascending aorta. Myocardial contractility was measured by the maximal rate of rise of left ventricular pressure which was recorded from a needle inserted into the ventricular cavity. The systemic blood pressure was measured with a pressure transducer by means of a polyethylene cannular inserted into the femoral artery. The heart rate was recorded by a cardiotrachometer triggered by R wave of electrocargiogram (Lead II). Test compounds were dissolved in vehicle solution and were injected into the femoral vein. The effects of each compound on the cardiac contractility and aortic flow were evaluated as a percentage change in values determined before and after administration of the compound. In Table 2 are shown such changes in terms of the percentage increase after administration.

[3] = read-out: Increase in aortic flow (%)
[4] = read-out: Increase in cardiac contractility (%)

| Compound | LD50 (Toxicity (LD50)) [mg/kg] | activation at 0.03 mg [1] [%] | activation at 0.1 mg [1] [%] | activation at 0.03 mg (right atrium preparation) [%] | activation at 0.1 mg (right atrium preparation; dose 100 μg) [%] | change in vivo at 0.03 mg/kg [2, 3] [%] | change in vivo at 0.03 mg/kg [2, 4] [%] | change in vivo at 0.1 mg/kg [2, 3] [%] | change in vivo at 0.1 mg/kg [2, 4] [%] | activation at 0.3 mg [1] [%] | inhibition at 0.1 mg (right atrium preparation; dose 100 μg, % decrease in sinus rate (in parentheses)) [%] | inhibition at 0.3 mg (right atrium preparation; dose 300 μg, % decrease in sinus rate (in parentheses)) [%] | activation at 0.3 mg (right atrium preparation; dose 300 μg) [%] | change in vivo at 0.3 mg/kg [2, 3] [%] | change in vivo at 0.3 mg/kg [2, 4] [%] |
| --- | --- | --- | --- | --- | --- | --- | --- | --- | --- | --- | --- | --- | --- | --- | --- |
| Cl.Cl.N=C(N)c1ccc(CCc2ccc(CN)cc2)cc1 [Compound 2, 4-[2-(4-Aminomethylphenyl)ethyl]benzamidine dihydrochloride] | 40 | 63.8 | 104 | 10.7 | 21.8 | 5 | 7.1 | 16.1 | 25 |  |  |  |  |  |  |
| CC(=O)O.CC(=O)O.N=C(N)c1ccc(OCc2ccc(CN)cc2)cc1 [Compound 8, 4-(4-aminomethylbenzyloxy)benzamidine diacetate] | 57.7 |  | 20.7 |  | 2.2 |  |  | 6.1 | 0 | 44.8 | 7.7 | 9.7 | 7.5 | 9.5 | 16.7 |
| CN=C(NC)c1ccc(CCc2ccc(CN)cc2OC)cc1 [Compound 17, 4-[2-(4-Aminomethyl-2-methoxyphenyl)ethyl]-N,N'-dimethylbenzamidine dihydrochloride] |  |  | 76.5 |  | 14.3 | 4.7 | 13.5 | 17 | 76.5 | 110 |  |  | 20.3 |  |  |
| CNC(=N)c1ccc(OCc2ccc(CN)cc2)cc1 [Compound 10, 4-(4-Aminomethylbenzyloxy)-N-methylbenzamidine dihydrochloride] |  |  | 27.9 |  | 11.6 |  |  |  |  | 54.4 |  |  | 17.9 | 2.5 | 8.7 |
| NCc1ccc(CCc2ccc(C3=NCCN3)cc2)cc1 [Compound 15, 2-{4-[2-(4-Aminomethylphenyl)ethyl]phenyl}imidazoline dihydrochloride] |  | 49.2 | 100 | 22.8 | 34.7 |  |  | 5.9 | 25 |  |  |  |  | 10 | 56.5 |
| N=C(NCCc1ccccn1)c1ccc(CCc2ccc(CN)cc2)cc1 [Compound 6, 4-[2-(4-Aminomethylphenyl)ethyl]-N-[2-(2-pyridyl)ethyl]benzamidine trihydrochloride] |  |  | 57.7 |  | 7.5 | 1.8 | 5.2 | 6.5 | 18 | 93.5 |  |  | 18.3 |  |  |
| Cl.Cl.N=C(NCCc1ccccc1)c1ccc(CCc2ccc(CN)cc2)cc1 [Compound 5, 4-[2-(4-Aminomethylphenyl)ethyl]-N-(2-phenylethyl)benzamidine dihydrochloride] | 57.7 | 33.3 | 53.5 | 16 | 17.7 |  |  | 5 | 12.9 |  |  |  |  | 19.2 | 38.9 |
